Measurements from article PMC7413254 (Nature Communications, 2020).
Values joined by “and” are separate entries in the source; they are usually repeats but may differ in a detail not shown here. Equal values may be shown once.

Legend:
[1] = test system: non-expressing oocytes; assay type: cell-based, Xenopus laevis; conditions: for Total [3H]CQ transport, trans-stimulation by injected solute / Trans-stimulation data: total [3H]CQ transport: non-expressing oocytes, footnote b: highest intracellular concentration tested was 30 mM (solubility); for Trans-stimulation data: total [3H]CQ transport: normalised to the oocyte type control (control = 100)
Method: (§1) Unless specified otherwise, the transport assays were conducted over 1.5 h at 27.5 °C and the reaction buffer was ND96 (96 mM NaCl, 2 mM KCl, 1 mM MgCl2, 1.8 mM CaCl2, 10 mM MES and 10 mM Tris-base) at pH 5.5.
The intracellular concentrations were calculated using previous estimates of the volume of stage V–VI oocytes (~400 nL[60]). […] The oocytes were injected with VF-6 suspended in 25 nL ND96 buffer adjusted to pH 5.0, 5.5, 6.0 or 7.0, which corresponded to the injection of 2.5–250 fmol of H^+. The Na^+-dependence of the trans-stimulatory effect of VF-6 was assessed by injecting the oocytes with VF-6 suspended in ND96 buffer (pH 5.5) or a Na^+-free version of this buffer (the Na^+ was replaced with choline).
(§2) At least four independent experiments were performed (on different days and using oocytes from different frogs), and within each experiment measurements were made from ten oocytes per treatment.

[2] = test system: non-expressing oocytes; test: cells; assay type: cell-based, Xenopus laevis
Excerpt: The orientation of PfCRT in the parasite’s DV membrane, and also in the oocyte plasma membrane, is such that its N- and C-termini extend into the cytosol. The oocytes were suspended in a reaction buffer adjusted to pH 5.5 to mimic the pH of the DV lumen[1],[2]. In this scenario, the transport of a substrate via PfCRT from the acidic extracellular solution into the oocyte cytosol[15] is analogous to the parasite’s PfCRT-mediated efflux of a substrate from the acidic DV and into the cytosol. Unless specified otherwise, this is the direction in which substrate transport was measured in the oocyte assays.
as §1
Ten oocytes were washed twice with the relevant ND96 buffer. […] The assay was terminated by removing the reaction buffer and washing the oocytes with ice-cold ND96 buffer. The oocytes were lysed in 10% (w/v) sodium dodecyl sulfate (SDS) and the radioactivity accumulated within each oocyte was measured with a MicroBeta^2 microplate liquid scintillation analyser (PerkinElmer).
as §2

[3] = target: PfCRT^3D7 (Plasmodium falciparum, UniProt Q8IBZ9); test: cell-based; assay type: cell-based; conditions: for Trans-stimulation data: PfCRT-mediated [3H]CQ transport: 2nd of 6 trans-stimulation columns, footnote b: due to solubility the highest intracellular concentration tested was 30 mM, normalised to the oocyte type control = 100; for Total [3H]CQ transport, trans-stimulation by injected solute / Trans-stimulation data: total [3H]CQ transport: PfCRT3D7 oocytes, footnote b: highest intracellular concentration tested was 30 mM (solubility); for Trans-stimulation data: total [3H]CQ transport: normalised to the oocyte type control (control = 100)
In short: (§3)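 Transport measured in Xenopus oocytes expressing the transporters, 1.5 h at 27.5 °C in ND96 pH 5.5 unless noted. For trans-stimulation, VF-6 injected in 25 nL ND96 at pH 5.0–7.0 or Na^+-free (choline) buffer; intracellular levels based on ~400 nL oocyte volume. Ten oocytes per treatment, ≥4 experiments.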

[4] = target: PfCRT^Ecu1110 (Plasmodium falciparum, UniProt Q9N623, A220S/I356L/K76T/N326D); test: cell-based; assay type: cell-based; conditions: for Total [3H]CQ transport, trans-stimulation by injected solute / Trans-stimulation data: total [3H]CQ transport: PfCRTEcu1110 oocytes, footnote b: highest intracellular concentration tested was 30 mM (solubility); for Trans-stimulation data: total [3H]CQ transport: normalised to the oocyte type control (control = 100); for Trans-stimulation data: PfCRT-mediated [3H]CQ transport: footnote b: due to solubility the highest intracellular concentration tested was 30 mM, normalised to the oocyte type control = 100
In short: as §3

[5] = target: T1, PfNT1 (Plasmodium falciparum, UniProt Q8IDM6); test: cell-based; assay type: cell-based; conditions: PfNT1 oocytes, footnote b: highest intracellular concentration tested was 30 mM (solubility); for Trans-stimulation data: total [3H]CQ transport: normalised to the oocyte type control (control = 100)
T1 construct: expressed in transfected cells; host or cells: Xenopus laevis oocytes (stage V-VI), cRNA-injected
In short: as §3

[6] = target: PfCRT^Dd2 (Plasmodium falciparum, UniProt Q9N623, A220S/I356T/K76T/M74I/N326S/N75E/Q271E/R371I); test: cell-based; assay type: cell-based; conditions: for Total [3H]CQ transport, trans-stimulation by injected solute / Trans-stimulation data: total [3H]CQ transport: PfCRTDd2 oocytes, footnote b: highest intracellular concentration tested was 30 mM (solubility); for Trans-stimulation data: total [3H]CQ transport: normalised to the oocyte type control (control = 100); for PfCRT-mediated [3H]CQ transport, trans-stimulation by injected solute, PfCRTDd2 / Trans-stimulation data: PfCRT-mediated [3H]CQ transport: footnote b: due to solubility the highest intracellular concentration tested was 30 mM; for PfCRT-mediated [3H]CQ transport, trans-stimulation by injected solute, PfCRTDd2: background subtracted; for Trans-stimulation data: PfCRT-mediated [3H]CQ transport: normalised to the oocyte type control = 100
In short: as §3

PfCRT^3D7, sequence (Q8IBZ9 59-398): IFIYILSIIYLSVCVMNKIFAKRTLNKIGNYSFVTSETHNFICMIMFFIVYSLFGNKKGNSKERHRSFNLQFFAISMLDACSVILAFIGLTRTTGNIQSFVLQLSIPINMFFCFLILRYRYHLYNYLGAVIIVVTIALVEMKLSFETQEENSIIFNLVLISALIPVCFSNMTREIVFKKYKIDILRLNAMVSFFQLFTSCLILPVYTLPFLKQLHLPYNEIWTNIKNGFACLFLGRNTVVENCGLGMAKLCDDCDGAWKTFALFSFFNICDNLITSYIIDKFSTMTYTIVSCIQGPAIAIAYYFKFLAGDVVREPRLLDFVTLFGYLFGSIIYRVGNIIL
T1 sequence (Q8IDM6 whole entry): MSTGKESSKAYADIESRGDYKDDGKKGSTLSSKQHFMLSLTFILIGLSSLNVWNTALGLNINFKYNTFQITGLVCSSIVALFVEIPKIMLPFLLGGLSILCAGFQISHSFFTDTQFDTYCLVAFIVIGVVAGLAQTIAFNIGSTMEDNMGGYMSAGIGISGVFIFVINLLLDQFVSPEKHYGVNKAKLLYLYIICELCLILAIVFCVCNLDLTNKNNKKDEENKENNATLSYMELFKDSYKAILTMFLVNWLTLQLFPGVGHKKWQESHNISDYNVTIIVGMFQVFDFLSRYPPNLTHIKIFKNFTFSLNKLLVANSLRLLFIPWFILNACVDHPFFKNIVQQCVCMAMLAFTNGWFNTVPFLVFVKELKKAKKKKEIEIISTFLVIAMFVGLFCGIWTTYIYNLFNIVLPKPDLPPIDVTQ
PfCRT^Ecu1110, sequence (Q9N623 whole entry A220S/I356L/K76T/N326D): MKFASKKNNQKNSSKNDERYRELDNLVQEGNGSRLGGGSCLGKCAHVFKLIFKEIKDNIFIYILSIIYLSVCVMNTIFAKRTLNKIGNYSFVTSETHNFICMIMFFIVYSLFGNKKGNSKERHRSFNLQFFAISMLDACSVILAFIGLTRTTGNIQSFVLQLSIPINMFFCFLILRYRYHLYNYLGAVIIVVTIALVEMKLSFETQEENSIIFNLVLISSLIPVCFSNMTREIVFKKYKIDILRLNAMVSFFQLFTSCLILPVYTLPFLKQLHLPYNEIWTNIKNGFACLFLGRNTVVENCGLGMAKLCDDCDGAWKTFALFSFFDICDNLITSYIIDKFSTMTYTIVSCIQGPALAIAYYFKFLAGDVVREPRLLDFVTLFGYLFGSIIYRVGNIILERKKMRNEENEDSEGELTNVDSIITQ
PfCRT^Dd2, sequence (Q9N623 whole entry A220S/I356T/K76T/M74I/N326S/N75E/Q271E/R371I): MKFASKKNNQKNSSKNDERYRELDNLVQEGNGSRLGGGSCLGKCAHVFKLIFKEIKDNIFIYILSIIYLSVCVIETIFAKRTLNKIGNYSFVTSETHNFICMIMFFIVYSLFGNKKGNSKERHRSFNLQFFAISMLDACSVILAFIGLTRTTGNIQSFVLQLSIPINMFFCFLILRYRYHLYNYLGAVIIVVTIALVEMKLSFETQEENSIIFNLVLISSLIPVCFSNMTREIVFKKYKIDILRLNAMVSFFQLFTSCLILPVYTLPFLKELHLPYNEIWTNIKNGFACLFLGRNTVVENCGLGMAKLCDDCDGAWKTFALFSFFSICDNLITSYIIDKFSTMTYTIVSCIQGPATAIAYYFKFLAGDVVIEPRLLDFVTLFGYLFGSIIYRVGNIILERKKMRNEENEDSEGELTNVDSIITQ

C[N+](C)(C)CCO [Choline]
Trans-stimulation data: total [3H]CQ transport, normalised to the oocyte type control [1]: 99 ± 2.8 and 100 ± 2.6 | Cis-inhibition data: total [3H]CQ transport, normalised to the oocyte type control [2]: 100 ± 5.4 and 99 ± 4.3 and 98 ± 3.6

NCCCNCCCCNCCCN [Spermine]
Trans-stimulation data: total [3H]CQ transport, normalised to the oocyte type control [1]: 99 ± 3.8 and 98 ± 2.9 | Cis-inhibition data: total [3H]CQ transport, normalised to the oocyte type control [2]: 99 ± 3.7 and 99 ± 4.1 and 100 ± 4.8

DDEGDDDPVPLPNVNA [DA-16, additional peptide, 16 residues]
Total [3H]CQ transport, trans-stimulation by injected solute [1]: 2.6 ± 0.08b % of the PfCRTDd2 control | Trans-stimulation data: total [3H]CQ transport [1]: 98 ± 3.5b | Trans-stimulation data: PfCRT-mediated [3H]CQ transport [3]: 97 ± 2.2b | Total [3H]CQ transport, trans-stimulation by injected solute [3]: 3.1 ± 0.02b % of the PfCRTDd2 control | Trans-stimulation data: total [3H]CQ transport [3]: 100 ± 4.5b | Total [3H]CQ transport, trans-stimulation by injected solute [4]: 33 ± 1.8b % of the PfCRTDd2 control | Trans-stimulation data: total [3H]CQ transport [4]: 99 ± 3.7b | Trans-stimulation data: PfCRT-mediated [3H]CQ transport [4]: 98 ± 2.9b | Total [3H]CQ transport, trans-stimulation by injected solute [5]: 3.3 ± 0.07b % of the PfCRTDd2 control | Trans-stimulation data: total [3H]CQ transport [5]: 99 ± 2.4b | Total [3H]CQ transport, trans-stimulation by injected solute [6]: 99 ± 2.7b % of the PfCRTDd2 control | Trans-stimulation data: total [3H]CQ transport [6]: 99 ± 2.7b | PfCRT-mediated [3H]CQ transport, trans-stimulation by injected solute, PfCRTDd2 [6]: 100 ± 1.9b % of PfCRTDd2 control | Trans-stimulation data: PfCRT-mediated [3H]CQ transport [6]: 100 ± 1.9b

FESFGDLSTPDAVMGNPKVK [FK-20, additional peptide, 20 residues]
Total [3H]CQ transport, trans-stimulation by injected solute [1]: 2.7 ± 0.06b % of the PfCRTDd2 control | Trans-stimulation data: total [3H]CQ transport [1]: 100 ± 4.8b | Trans-stimulation data: PfCRT-mediated [3H]CQ transport [3]: 98 ± 1.7b | Total [3H]CQ transport, trans-stimulation by injected solute [3]: 3.1 ± 0.05b % of the PfCRTDd2 control | Trans-stimulation data: total [3H]CQ transport [3]: 101 ± 2.7b | Total [3H]CQ transport, trans-stimulation by injected solute [4]: 32 ± 1.7b % of the PfCRTDd2 control | Trans-stimulation data: total [3H]CQ transport [4]: 99 ± 2.9b | Trans-stimulation data: PfCRT-mediated [3H]CQ transport [4]: 97 ± 2.0b | Total [3H]CQ transport, trans-stimulation by injected solute [5]: 4.2 ± 0.03b % of the PfCRTDd2 control | Trans-stimulation data: total [3H]CQ transport [5]: 100 ± 4.2b | Total [3H]CQ transport, trans-stimulation by injected solute [6]: 101 ± 4.7b % of the PfCRTDd2 control | Trans-stimulation data: total [3H]CQ transport [6]: 101 ± 4.7b | PfCRT-mediated [3H]CQ transport, trans-stimulation by injected solute, PfCRTDd2 [6]: 98 ± 4.3b % of PfCRTDd2 control | Trans-stimulation data: PfCRT-mediated [3H]CQ transport [6]: 98 ± 4.3b
